From US9776987B2, “Amide derivatives for GPR119 agonist” (CHONG KUN DANG PHARMACEUTICAL CORP., priority 2013, dated 2017)
Values after ≈ are worked out from the molar mass of the structure shown. Like-named read-outs stand apart in the source and are kept apart here.

Experiments:
human GPR119 receptor = biological target: T1, human GPR119 receptor (Homo sapiens, UniProt Q8TDV5); assay: Activity test for human GPR119 receptor (GeneBLAzer T-Rex GPR 119 CHO-K1 DA cells); format: cell-based; conditions: for EC50: human GPR119 receptor expressing CHO-K1 cells, 5 hours treatment, read-out: hGPR119 EC50; for activity for human GPR119 receptor (in words): judgement on the EC50 values of Table 11
T1 construct: host or cells: GeneBLAzer T-Rex GPR 119 CHO-K1 DA cells (CHO-K1)
T1 sequence (Q8TDV5 1-335): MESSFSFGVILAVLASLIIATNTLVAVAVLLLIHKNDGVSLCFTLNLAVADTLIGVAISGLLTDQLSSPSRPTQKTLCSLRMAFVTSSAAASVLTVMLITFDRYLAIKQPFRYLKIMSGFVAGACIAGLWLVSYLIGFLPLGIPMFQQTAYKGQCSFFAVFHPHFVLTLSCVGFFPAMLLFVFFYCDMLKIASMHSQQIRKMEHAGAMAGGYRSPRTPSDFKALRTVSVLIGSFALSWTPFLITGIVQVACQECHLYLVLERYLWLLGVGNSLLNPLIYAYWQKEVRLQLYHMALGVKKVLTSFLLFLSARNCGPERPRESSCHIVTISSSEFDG
Method: 1. Human GPR119 Receptor Cell
As a human GPR119 receptor expression cell for this test, the cell line “GeneBLAzer™ T-Rex GPR 119 CHO-K1 DA cells” that is commercially available from Invitrogen, was used. The cell was incubated in the DMEM media containing 1% dialyzed fetal bovine serum etc. The cell incubator was kept at constant temperature and constant humidity of 37° C., 5% CO2.
2. Activity Test for Human GPR119 Receptor
The human GPR119 receptor expressing cell was used to this test. Each of test compounds was added to be final concentrations of 0.1, 1, 10 μM in 96 well and tested in duplicate. A fixed amount of cell was added to each well of 96 well separately, and then treated with the test compound for 5 hours. After treatment of color development agent for 2 hours, the fluorescence value was determined with plate reader. To the luminous wavelength of control well, which was not treated with the sample, but in which only a vehicle […] was contained, the ratio of the luminous wavelength of test well, which was treated with the sample, was calculated, and then converted to obtain EC50 value.
3. Statistical Processing
All the results were expressed as mean±SD, and each test groups and the control group were compared using student's t-test to adjudge the effects of each test groups.

[1] = Solubility test of GPR 119 agonist compounds (Nephelostar); format: physicochemical; conditions: aqueous with cosolvent or surfactant or cyclodextrin, kinetic from dmso stock
Method: 1. Method of Solubility Test
Each test compounds were dissolved in 5% DMSO aqueous solution as a solvent at several concentrations. When a laser was irradiated to the solution, the particles, which are not dissolved in the solvent, scatter the light. The level of the scattered light is dependent to the number of the particles, so the solubility of the test compound in the solution can be determined using the relationship. As the test equipment, Nephelostar was used.

[2] = pH 2, 5% DMSO aqueous solution, read-out: Solubility pH 2
[3] = pH 4, 5% DMSO aqueous solution, read-out: Solubility pH 4
[4] = pH 6, 5% DMSO aqueous solution, read-out: Solubility pH 6
[5] = pH 8, 5% DMSO aqueous solution, read-out: Solubility pH 8

SMILES | EC50 (human GPR119 receptor) [nM] | activity for human GPR119 receptor (in words) (human GPR119 receptor) | solubility [1, 2] [µg/mL] | solubility [1, 3] [µg/mL] | solubility [1, 4] [µg/mL] | solubility [1, 5] [µg/mL]
C[C@@]1(C(N)=O)C[C@@H](O)CN1C(=O)c1ccc(-c2ccc(OCC3CCN(CC4(C(F)(F)F)CCC4)CC3)nc2)c(F)c1 [Compound 1325, (2S,4R)-1-(3-fluoro-4-(6-((1-((1-(trifluoromethyl)cyclobutyl)methyl)piperidin-4-yl)methoxy)pyridin-3-yl)benzoyl)-4-hydroxy-2-methylpyrrolidin-2-carboxamide] | 14 | excellent activity | > 296 | > 296 | > 296 | 114 (≈ 192 µM)
CCC(F)(CC)CN1CCC(COc2ccc(-c3ccc(C(=O)N4C[C@H](O)C[C@@]4(C)C(N)=O)cc3F)nc2)CC1 [Compound 1292, (2S,4R)-1-(4-(5-((1-(2-ethyl-2-fluorobutyl)piperidin-4-yl)methoxy)pyridin-2-yl)-3-fluorobenzoyl)-4-hydroxy-2-methylpyrrolidin-2-carboxamide] | 12 |  | > 279 | > 279 | > 279 | > 279
CC(C)(CN1CCC(COc2ccc(-c3ccc(C(=O)N4C[C@H](O)C[C@H]4C(N)=O)c(F)c3)nc2)CC1)C(F)(F)F [Compound 1268, (2S,4R)-1-(2-fluoro-4-(5-((1-(3,3,3-trifluoro-2,2-dimethylpropyl)piperidin-4-yl)methoxy)pyridin-2-yl)benzoyl)-4-hydroxypyrrolidin-2-carboxamide] | 0.07 | excellent activity | > 283 | > 283 | > 283 | 54 (≈ 95.3 µM)
C[C@@]1(C(N)=O)C[C@@H](O)CN1C(=O)c1ccc(-c2ccc(OCC3CCN(CC4(C(F)(F)F)CCC4)CC3)cn2)c(F)c1 [Compound 1329, (2S,4R)-1-(3-fluoro-4-(5-((1-((1-(trifluoromethyl)cyclobutyl)methyl)piperidin-4-yl)methoxy)pyridin-2-yl)benzoyl)-4-hydroxy-2-methylpyrrolidin-2-carboxamide] | 10 | excellent activity | > 296 | > 296 | > 296 | 112 (≈ 189 µM)
NC(=O)[C@@H]1C[C@@H](O)CN1C(=O)c1ccc(-c2ccc(OCC3CCN(CC(F)(F)C(F)(F)F)CC3)cc2)cc1F [Compound 1256, (2S,4R)-1-(3-fluoro-4′-((1-(2,2,3,3,3-pentafluoropropyl)piperidin-4-yl)methoxy)biphenylcarbonyl)-4-hydroxypyrrolidin-2-carboxamide] | 0.4 |  |  |  |  | 
CCC(F)(CC)CN1CCC(COc2ccc(-c3ccc(C(=O)N4CC[C@H](O)[C@H]4C(N)=O)c(F)c3)cc2F)CC1 [Compound 1244, (2S,3S)-1-(4′-((1-(2-ethyl-2-fluorobutyl)piperidin-4-yl)methoxy)-3,3′-difluorobiphenylcarbonyl)-3-hydroxypyrrolidin-2-carboxamide] | 0.3 |  |  |  |  | 
CC(C)(CN1CCC(COc2ccc(-c3ccc(C(=O)N4CCC[C@H]4C(N)=O)c(F)c3)nc2)CC1)C(F)(F)F [Compound 1267, (S)-1-(2-fluoro-4-(5-((1-(3,3,3-trifluoro-2,2-dimethylpropyl)piperidin-4-yl)methoxy)pyridin-2-yl)benzoyl)pyrrolidin-2-carboxamide] | 0.09 | excellent activity |  |  |  | 
CCC(F)(F)CN1CCC(COc2ccc(-c3ccc(C(=O)N4CCC[C@H]4C(N)=O)c(F)c3)cn2)CC1 [Compound 1238, (S)-1-(4-(6-((1-(2,2-difluorobutyl)piperidin-4-yl)methoxy)pyridin-3-yl)-2-fluorobenzoyl)pyrrolidin-2-carboxamide] | 0.9 |  |  |  |  | 
NC(=O)[C@@H]1CCCN1C(=O)c1ccc(-c2ccc(OCC3CCN(CC(F)(F)C(F)(F)F)CC3)cc2)cc1F [Compound 1239, (S)-1-(3-fluoro-4′-((1-(2,2,3,3,3-pentafluoropropyl)piperidin-4-yl)methoxy)biphenylcarbonyl)pyrrolidin-2-carboxamide] | 0.1 |  |  |  |  | 
CCC(F)(CC)CN1CCC(COc2ccc(-c3ccc(C(=O)N4C[C@H](O)C[C@@]4(C)C(N)=O)cc3)nc2)CC1 [Compound 1309, (2S,4R)-1-(4-(5-((1-(2-ethyl-2-fluorobutyl)piperidin-4-yl)methoxy)pyridin-2-yl)benzoyl)-4-hydroxy-2-methylpyrrolidin-2-carboxamide] | 47 |  |  |  |  | 

The remaining compounds from weak to strong by EC50 (human GPR119 receptor), led by results:

EC50 (human GPR119 receptor) [nM] | activity for human GPR119 receptor (in words) (human GPR119 receptor) | solubility [1, 2] [µg/mL] | solubility [1, 3] [µg/mL] | solubility [1, 4] [µg/mL] | solubility [1, 5] [µg/mL] | SMILES
19 | excellent activity | > 290 | > 290 | 203 (≈ 350 µM) | 52 (≈ 89.6 µM) | CC(C)(CN1CCC(COc2ccc(-c3ccc(C(=O)N4C[C@H](O)C[C@@]4(C)C(N)=O)c(F)c3)nc2)CC1)C(F)(F)F [Compound 1294, (2S,4R)-1-(2-fluoro-4-(5-((1-(3,3,3-trifluoro-2,2-dimethylpropyl)piperidin-4-yl)methoxy)pyridin-2-yl)benzoyl)-4-hydroxy-2-methylpyrrolidin-2-carboxamide]
0.1 |  |  |  |  |  | NC(=O)[C@@H]1[C@@H](O)CCN1C(=O)c1ccc(-c2ccc(OCC3CCN(CC4(C(F)(F)F)CCC4)CC3)cc2)c(F)c1 [Compound 1220, (2S,3S)-1-(2-fluoro-4′-((1-((1-(trifluoromethyl)cyclobutyl)methyl)piperidin-4-yl)methoxy)biphenylcarbonyl)-3-hydroxypyrrolidin-2-carboxamide]
0.1 | excellent activity |  |  |  |  | NC(=O)[C@@H]1[C@@H](O)CCN1C(=O)c1ccc(-c2cnc(OCC3CCN(CC4(C(F)(F)F)CCC4)CC3)cn2)cc1F [Compound 1249, (2S,3S)-1-(2-fluoro-4-(5-((1-((1-(trifluoromethyl)cyclobutyl)methyl)piperidin-4-yl)methoxy)pyrazin-2-yl)benzoyl)-3-hydroxypyrrolidin-2-carboxamide]
0.09 |  |  |  |  |  | NC(=O)[C@@H]1C[C@H](F)CN1C(=O)c1ccc(-c2cnc(OCC3CCN(CC4(C(F)(F)F)CCC4)CC3)cn2)cc1 [Compound 1209, (2S,4S)-4-fluoro-1-(4-(5-((1-((1-(trifluoromethyl)cyclobutyl)methyl)piperidin-4-yl)methoxy)pyrazin-2-yl)benzoyl)pyrrolidin-2-carboxamide]
0.09 | excellent activity |  |  |  |  | NC(=O)[C@@H]1CCCN1C(=O)c1ccc(-c2ccc(OCC3CCN(CC(F)(F)C(F)(F)F)CC3)cn2)cc1F [Compound 1264, (S)-1-(2-fluoro-4-(5-((1-(2,2,3,3,3-pentafluoropropyl)piperidin-4-yl)methoxy)pyridin-2-yl)benzoyl)pyrrolidin-2-carboxamide]
0.08 |  |  |  |  |  | CCC(F)(CC)CN1CCC(COc2ccc(-c3ccc(C(=O)N4C[C@@H](F)C[C@H]4C(N)=O)c(F)c3)cc2)CC1 [Compound 1211, (2S,4S)-1-(4′-((1-(2-ethyl-2-fluorobutyl)piperidin-4-yl)methoxy)-3-fluorobiphenylcarbonyl)-4-fluoropyrrolidin-2-carboxamide]
